Assay results reported in paper PMC11241340, “The Discovery of Novel α2a Adrenergic Receptor Agonists Only Coupling to Gαi/O Proteins by Virtual Screening” (International Journal of Molecular Sciences, 2024).
Where a chain is given by its changes, count along the chain named.

Key:
α2B-AR [1] = biological target: T1, α2B-AR (Homo sapiens, UniProt P18089); experiment: GloSensor cAMP assay in HEK293 cells transfected with α2B-AR; format: cell-based; set-up: Flag; expressed in transfected cells; host or cells: HEK293; details: for effect of pretreatment on cAMP accumulation induced by DMED (antagonist activity): α2B-AR-HEK293 cells, 10 μM; for effect on cAMP accumulation (agonist activity) in α2B-AR cells: HEK293 α2B-AR, DMED 10^−10–10^−7M, P300–2342 10^−10–10^−5M
T1 sequence (P18089 1-450): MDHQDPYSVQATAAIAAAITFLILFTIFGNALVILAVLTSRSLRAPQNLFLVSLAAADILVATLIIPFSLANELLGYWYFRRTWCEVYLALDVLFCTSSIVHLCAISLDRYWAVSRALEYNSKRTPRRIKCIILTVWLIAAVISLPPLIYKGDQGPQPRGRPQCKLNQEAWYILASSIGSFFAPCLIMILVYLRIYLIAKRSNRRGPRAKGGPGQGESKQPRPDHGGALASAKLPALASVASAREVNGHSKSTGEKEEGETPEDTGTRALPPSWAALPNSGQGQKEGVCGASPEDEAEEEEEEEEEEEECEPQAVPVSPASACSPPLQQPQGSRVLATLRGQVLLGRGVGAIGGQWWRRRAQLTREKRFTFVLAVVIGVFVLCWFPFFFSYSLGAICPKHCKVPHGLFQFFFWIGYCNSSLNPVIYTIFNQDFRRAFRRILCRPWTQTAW

[2] = biological target: T2, α2A-AR mutant V114A (α2AV114A-AR) (Homo sapiens, UniProt P08913, V129A); experiment: GloSensor cAMP assay in HEK293 cells transfected with α2AV114A-AR; format: cell-based; details: forskolin 10 μM
T2 construct: Flag; expressed in transfected cells; host or cells: HEK293
T2 sequence (P08913 1-465 V129A): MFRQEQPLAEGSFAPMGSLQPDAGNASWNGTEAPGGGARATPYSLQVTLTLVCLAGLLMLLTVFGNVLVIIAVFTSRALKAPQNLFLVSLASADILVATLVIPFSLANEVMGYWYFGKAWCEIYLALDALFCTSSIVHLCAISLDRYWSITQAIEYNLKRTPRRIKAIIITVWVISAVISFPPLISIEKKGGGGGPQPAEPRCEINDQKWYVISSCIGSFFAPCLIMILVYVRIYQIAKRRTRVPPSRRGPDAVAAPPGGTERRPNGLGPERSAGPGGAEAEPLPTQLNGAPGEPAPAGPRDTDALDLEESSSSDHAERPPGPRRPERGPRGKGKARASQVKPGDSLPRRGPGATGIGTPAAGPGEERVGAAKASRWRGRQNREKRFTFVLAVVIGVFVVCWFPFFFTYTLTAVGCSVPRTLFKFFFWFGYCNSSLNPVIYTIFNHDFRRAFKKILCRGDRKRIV
Protocol: (§1) According to the GloSensor cAMP biosensor (Promega, Shanghai, China) manufacturer protocols, HEK293 cells were co-transfected with the pGloSensor-22F cAMP plasmid (Promega, E1171) and pCMV6 Entry-Flag-α2A-AR. After 24 h, the cells were seeded in white 96-well plates. The next day, the cell media were replaced by 90 μL of fresh DMEM with 2% v/v GloSensor cAMP reagent (Promega, E1290) and incubated for 60 min at 37 °C. Before drug stimulation, an initial measurement of the baseline signal was detected. […] PTX 500 ng/mL pretreatment for 24 h was used to assay the chemical effects on Gi coupling following α2A-AR activation. Two mutations, V114A and Y394A were introduced into the α2A-AR genes, respectively, using standard QuickChange PCR. […] In each experiment, the cAMP assay used pcDNA3.1 myc/hisB transfected cells as a negative control and cells stimulated with 10 μM of forskolin as a positive control. The signal was read using a Victor 2D Instrument (PerkinElmer) at 675 nm. The production of cAMP% was calculated (the signal value after chemicals addition–baseline signal value)/the baseline signal value *100 as described in our previous study.

[3] = biological target: T3, α2A-AR mutant Y394A (α2AY394A-AR) (Homo sapiens, UniProt P08913, Y409A); experiment: GloSensor cAMP assay in HEK293 cells transfected with α2AY394A-AR; format: cell-based; details: forskolin 10 μM
T3 construct: Flag; expressed in transfected cells; host or cells: HEK293
T3 sequence (P08913 1-465 Y409A): T2 sequence (P08913 1-465 V129A) with A129V, Y409A
Protocol: as §1

C57/B6 mice = details: 432 nmol/kg, i.p.
Protocol: C57BL/6 mice (20–22 g) were purchased from the SPF biotechnology co., LTD (Beijing, China). All the animals were housed in an alternating 12 h light/12 h dark cycle room, which was maintained in a climate-controlled environment (25 ± 1 °C). Animals had free access to water and food. All the experimental procedures were reviewed and approved by the ethics committee and institutional animal care and use committee of the Beijing Institute of Pharmacology and Toxicology, Beijing, China (IACUC of AMMS–06–2017–001). Animals were assigned to groups randomly before testing. Testing occurred within the same approximate time of day between experiments. The experimenter was blinded to treatment throughout the course of behavioral testing.
The LORR in C57/B6 mice were used to study the effects of screening compounds.

α2A-AR [4] = biological target: T4, α2A-AR (Homo sapiens, UniProt P08913); experiment: GloSensor cAMP assay in HEK293 cells transfected with α2A-AR; format: cell-based; set-up: Flag; expressed in transfected cells; host or cells: HEK293; details: for decrease in cAMP accumulation after pertussis toxin pretreatment: PTX 500 ng/mL, 24 h; for increase of cAMP accumulation (Gαs coupling) / decrease of cAMP accumulation stimulated by forskolin (Gαi/o coupling): α2A-AR HEK293, P300–2342 10^−10–10^−5M; for increase of cAMP accumulation (Gαs coupling): DMED 10^−8–10^−5M; for decrease of cAMP accumulation stimulated by forskolin (Gαi/o coupling): FSK 10^−5M, DMED 10^−13–10^−9M
T4 sequence (P08913 1-465): T2 sequence (P08913 1-465 V129A) with A129V
Protocol: as §1

α2B-AR [5] = biological target: T1, α2B-AR; experiment: Competitive inhibition of [3H] Rauwolscine binding, CHO-K1 membranes
C57BL/6 mice = experiment: Spontaneous locomotor activity of mice; format: in vivo, mouse; details: for inhibition of mice locomotor activity compared to solvent: 10 nmol/mice, i.c.v.
Description: Animals had free access to water and food. […] Animals were assigned to groups randomly before testing.

α2A-AR [6] = biological target: T4, α2A-AR; experiment: Competitive inhibition of [3H] Rauwolscine binding, CHO-K1 membranes

SMILES: COc1ccccc1N1CCN(CCN2C(=O)c3ccccc3C(C)(C)C2=O)CC1 [ARC239, reference compound]
- effect of pretreatment on cAMP accumulation induced by DMED (antagonist activity) (α2B-AR [1]): decreased

SMILES: Cc1cccc([C@H](C)c2cnc[nH]2)c1C [DMED, Dexmedetomidine, reference compound]
- cAMP production in α2AV114A-AR compared to α2A-AR wild type [2]: increased
- decrease of cAMP production in α2AV114A-AR cells [2]: did not decrease
- cAMP production in α2AY394A-AR compared to α2A-AR wild type [3]: increased
- decrease of cAMP production in α2AY394A-AR cells [3]: did not decrease
- LORR induced in mice (C57/B6 mice): 50%
- decrease in cAMP accumulation after pertussis toxin pretreatment (α2A-AR [4]): abolished
- increase of cAMP accumulation (Gαs coupling) (α2A-AR [4]): concentration-dependently increased
- decrease of cAMP accumulation stimulated by forskolin (Gαi/o coupling) (α2A-AR [4]): concentration-dependently decreased
- effect on cAMP accumulation (agonist activity) in α2B-AR cells (α2B-AR [1]): concentration-dependently increased
- IC50 (α2B-AR [5]): 0.0146 µM

SMILES: CCN(CC)CCNC(=O)c1ccc2c(c1)n(Cc1ccccc1)c(=O)c1ccnn12 [P300–1500]
- inhibition of mice locomotor activity compared to solvent (C57BL/6 mice): 30%–60%
- increase of cAMP accumulation (Gαs coupling) (α2A-AR [4]): without increasing
- decrease of cAMP accumulation stimulated by forskolin (Gαi/o coupling) (α2A-AR [4]): decreased
- effect on cAMP accumulation (agonist activity) in α2B-AR cells (α2B-AR [1]): no activation
- effect of pretreatment on cAMP accumulation induced by DMED (antagonist activity) (α2B-AR [1]): no effects
- IC50 (α2A-AR [6]): 9.66 µM
- maximum binding inhibition of [3H] Rauwolscine, α2A-AR (α2A-AR [6]): 90%
- IC50 (α2B-AR [5]): 19 µM
- maximum binding inhibition of [3H] Rauwolscine, α2B-AR (α2B-AR [5]): 85%

SMILES: CCN(CC)CCNC(=O)c1ccc2c(c1)n(Cc1cccc(F)c1)c(=O)c1ccnn12 [P300–2342]
- antagonism of the locomotor inhibition by α2-AR antagonist atipamezole (C57BL/6 mice; compound 10 nmol/mice i.c.v., atipamezole 0.2 mg/kg i.p.): could be antagonized
- locomotor activity of mice (abstract statement) (C57BL/6 mice; p < 0.05, dose not given): significantly decreased
- decrease of cAMP production in α2AV114A-AR cells [2]: did not decrease
- decrease of cAMP production in α2AY394A-AR cells [3]: did not decrease
- effect on cAMP accumulation in presence of α2A-AR selective antagonist BRL44408 (α2A-AR [4]; BRL44408 1 μM): antagonized
- decrease in cAMP accumulation after pertussis toxin pretreatment (α2A-AR [4]): abolished
- increase of cAMP accumulation (Gαs coupling) (α2A-AR [4]): without increasing
- decrease of cAMP accumulation stimulated by forskolin (Gαi/o coupling) (α2A-AR [4]): concentration-dependently decreased
- effect on cAMP accumulation (agonist activity) in α2B-AR cells (α2B-AR [1]): no effect
- effect of pretreatment on cAMP accumulation induced by DMED (antagonist activity) (α2B-AR [1]): slightly decreased
- maximum binding inhibition of [3H] Rauwolscine, α2A-AR (α2A-AR [6]): 83%
- maximum binding inhibition of [3H] Rauwolscine, α2B-AR (α2B-AR [5]): 71%

SMILES: O=C(NCCN1CCCCC1)c1ccc2c(c1)n(Cc1cccc(F)c1)c(=O)c1ccnn12 [P300–2344]
- inhibition of mice locomotor activity compared to solvent (C57BL/6 mice): 30%–60%
- increase of cAMP accumulation (Gαs coupling) (α2A-AR [4]): without increasing
- decrease of cAMP accumulation stimulated by forskolin (Gαi/o coupling) (α2A-AR [4]): decreased
- effect on cAMP accumulation (agonist activity) in α2B-AR cells (α2B-AR [1]): no activation
- effect of pretreatment on cAMP accumulation induced by DMED (antagonist activity) (α2B-AR [1]): no effects
- IC50 (α2A-AR [6]): 11.3 µM
- maximum binding inhibition of [3H] Rauwolscine, α2A-AR (α2A-AR [6]): 91%
- IC50 (α2B-AR [5]): 15.9 µM
- maximum binding inhibition of [3H] Rauwolscine, α2B-AR (α2B-AR [5]): 86%

SMILES: CN(C)CCNC(=O)c1ccc2c(c1)n(Cc1cccc(F)c1)c(=O)c1ccnn12 [T226–1970]
- inhibition of mice locomotor activity compared to solvent (C57BL/6 mice): 30%–60%
- increase of cAMP accumulation (Gαs coupling) (α2A-AR [4]): without increasing
- decrease of cAMP accumulation stimulated by forskolin (Gαi/o coupling) (α2A-AR [4]): decreased
- effect on cAMP accumulation (agonist activity) in α2B-AR cells (α2B-AR [1]): no activation
- effect of pretreatment on cAMP accumulation induced by DMED (antagonist activity) (α2B-AR [1]): slightly decreased
- IC50 (α2A-AR [6]): 19.5 µM
- maximum binding inhibition of [3H] Rauwolscine, α2A-AR (α2A-AR [6]): 85%
- IC50 (α2B-AR [5]): 8.56 µM
- maximum binding inhibition of [3H] Rauwolscine, α2B-AR (α2B-AR [5]): 94%
